Read-outs that look alike come from different tables or passages of the source.
Legend:
[1] = Pharmacokinetic study in control and DSS-induced UC rats after oral administration of LXF (serum, UPLC-MS/MS); assay type: in vivo, Sprague-Dawley (SD) rats; conditions: for AUC(0-inf) / AUC(0-t) / Cmax / Tmax / half-life / MRT inf: male, Sprague-Dawley, rat, serum, po, 3.3 g/kg, oral LXF 3.30 g/kg, rat serum, n = 8, mean ± SD; for MRT inf: read-out: MRT0→∞
Protocol: Sixteen male Sprague-Dawley (SD) rats (220 ± 10 g) were provided from the Liaoning Changsheng Biotechnology Co., Ltd (Benxi, China; with license No. of SCXK, 2020-0001). The rats were kept in an environment (22 ± 2°C, relative humidity 50 ± 5%) under a 12-h light-dark cycle with a free diet and water for 3 days. All experiments on animals were conducted strictly under the related ethics regulations of the Committee on Use and Care of Animals of Guangzhou University of Chinese Medicine (Guangzhou, China) (No. 712052).
All rats were assigned equally and randomly to the control and model groups. The rats of the model group were free to access 4% DSS for 7 days to induce UC, and rats of the control group were given pure water ([Chen et al., 2020]). Before the pharmacokinetics study, the DSS-induced UC rats (model) were established successfully (Supplementary Material Part B).
After fasting for 12 h, the rats were orally administered LXF at a 3.30 g/kg dose according to Prescription preparation of Chinese medicine, volume 10 ([Lu et al., 2021]). Serum samples (approximately 0.5 ml) were collected from the fosse orbital vein using 1.5 ml polythene tubes before the administration and at 0.083, 0.25, 0.5, 1, 1.5, 2.5, 4, 6, 8, 12, 24, 36, and 48 h after dosing and centrifuged immediately at 3,500 rpm for 15 min. Serum was transferred into clean tubes and stored at −80°C.
100 μl of IS solution (960 ng/ml) was added to a 100 μl serum sample and vortex-mixed for 0.5 min, and then 800 μl of methanol was added and vortex-mixed for 3 min. After centrifugation at 12,000 rpm for 15 min (4°C), the supernatant of the mixture was transferred to another vial and evaporated to dryness with nitrogen purging. The residue was resolved with 100 μ of methanol, vortex-mixed for 1 min, and centrifuged at 12,000 rpm for 10 min (4°C). A 2 μl aliquot of the supernatant was injected into the UPLC-MS/MS system for analysis.
Chromatographic analysis was performed using UPLC-MS/MS, utilizing a Finnigan Surveyor auto-sampler and a Finnigan Surveyor LC pump combined with a triple quadrupole TSQ Quantum mass spectrometer electrospray ionization (ESI) interface (Thermo Fisher, Palo Alto, CA). The chromatographic separation was performed on the Waters Acquity UPLC BEH C18 column (2.1 mm × 100 mm; 1.7 µm). The mobile phase consisted of acetonitrile (A) and 0.1% formic acid (B) with a gradient elution program (0-5 min, 20% A-35% A; 5-6 min, 35% A-100% A; 6–8min, 100% A; 8–8.5 min, 100% A-20% A; 8.5–10.5 min, 20% A) at a flow rate of 0.4 ml/min. The column temperature was maintained at 40°C throughout the analysis. The injection volume was 2 μl.
Quantification was performed using multiple reaction monitoring (MRM) in the positive ionization mode, and the optimized MRM parameters of the four analytes and IS are listed in Table 1. The MRM transition, retention time (RT), and collision energy (CE) values were based on Thermo Foundation 2.0. Curtain gas pressure at 35 psi, ion source gas 1 and gas 2 at 55 psi, ion spray voltage at 5500 V, and temperature at 500°C.
Non-compartment model pharmacokinetic parameters, including the time to reach the maximum serum concentration (Tmax), the maximum serum concentration (Cmax), the elimination half-time (T1/2), the area under the serum concentration-time curve (AUC), and mean residence time (MRT), were calculated by DAS (version 3.2.8, Chinese Pharmacological Association, Anhui, China). The difference between the control and model groups was statistically analyzed using SPSS 26.0 (IBM Company, Chicago). All data in this study were subjected to a one-way analysis of variance (ANOVA) and then expressed by mean ± standard deviation (SD). LSD t-test was applied when the homogeneity of variance assumptions was satisfied; otherwise, Dunnett’s t-test was used. A p < 0.05 was considered statistically significant.

[2] = Stability test of QC samples in rat serum; assay type: in vitro ADME; conditions: n = 6
Protocol: Quality control (QC) samples at low, middle and high concentrations (61.50, 384.38, and 4,000.00 ng/ml for andrographolide; 24.00, 150.00, and 1,500.00 ng/ml for dehydroandrographolide; 6.91, 43.20, and 450.00 ng/ml for 1-methoxicabony-β-carboline; 6.30, 39.38, and 400.00 ng/ml for 4-methoxy-5-hydroxy-canthin-6-one) were also prepared by the same procedures.
Recovery was determined at three QC levels and calculated by comparing the compound standard peak areas obtained from extracted samples with post-extracted samples spiked with the compound. Matrix effects were calculated by matching spiking post-extracted blank serum samples with corresponding standard clean solutions at three concentrations of QC samples.

[3] = 4°C for 24 h, high QC (nominal 4,000.00 / 1,500.00 / 450.00 / 400.00 ng/ml for compounds 1-4)
[4] = 4°C for 24 h, low QC (nominal 61.50 / 24.00 / 6.91 / 6.30 ng/ml for compounds 1-4)
[5] = 4°C for 24 h, middle QC (nominal 384.38 / 150.00 / 43.20 / 39.38 ng/ml for compounds 1-4)
[6] = 25°C for 12 h, high QC (nominal 4,000.00 / 1,500.00 / 450.00 / 400.00 ng/ml for compounds 1-4)
[7] = 25°C for 12 h, low QC (nominal 61.50 / 24.00 / 6.91 / 6.30 ng/ml for compounds 1-4)
[8] = 25°C for 12 h, middle QC (nominal 384.38 / 150.00 / 43.20 / 39.38 ng/ml for compounds 1-4)
[9] = three freeze-thaw, high QC (nominal 4,000.00 / 1,500.00 / 450.00 / 400.00 ng/ml for compounds 1-4)
[10] = three freeze-thaw, low QC (nominal 61.50 / 24.00 / 6.91 / 6.30 ng/ml for compounds 1-4)
[11] = three freeze-thaw, middle QC (nominal 384.38 / 150.00 / 43.20 / 39.38 ng/ml for compounds 1-4)
[12] = −80°C for 30 days, high QC (nominal 4,000.00 / 1,500.00 / 450.00 / 400.00 ng/ml for compounds 1-4)
[13] = −80°C for 30 days, low QC (nominal 61.50 / 24.00 / 6.91 / 6.30 ng/ml for compounds 1-4)
[14] = −80°C for 30 days, middle QC (nominal 384.38 / 150.00 / 43.20 / 39.38 ng/ml for compounds 1-4)

Row | SMILES | AUC(0-inf) ([1]; UC group (4% DSS for 7 days)) [ng·h/mL] | AUC(0-t) ([1]; UC group (4% DSS for 7 days)) [ng·h/mL] | Cmax ([1]; UC group (4% DSS for 7 days)) [ng/mL] | Tmax ([1]; UC group (4% DSS for 7 days)) [h] | half-life ([1]; UC group (4% DSS for 7 days)) [h] | MRT inf ([1]; UC group (4% DSS for 7 days)) [h] | AUC(0-inf) ([1]; control group) [ng·h/mL] | AUC(0-t) ([1]; control group) [ng·h/mL] | Cmax ([1]; control group) [ng/mL] | Tmax ([1]; control group) [h] | half-life ([1]; control group) [h] | MRT inf ([1]; control group) [h] | Stability, mean concentration found [2, 3] | Stability, mean concentration found [2, 4] [ng/mL] | Stability, mean concentration found [2, 5] [ng/mL] | Stability, mean concentration found [2, 6] | Stability, mean concentration found [2, 7] [ng/mL] | Stability, mean concentration found [2, 8] [ng/mL] | Stability, mean concentration found [2, 9] | Stability, mean concentration found [2, 10] [ng/mL] | other results
1 | COC(=O)c1nccc2c1[nH]c1ccccc12 [1-methoxicabony-β-carboline] | 444 ± 154 | 424 ± 143 | 160 ± 18.9 | 1.13 ± 0.23 | 1.2 ± 0.41 | 2.23 ± 0.63 | 219 ± 79.2 | 215 ± 78.4 | 129 ± 33.9 | 0.69 ± 0.37 | 1.02 ± 0.43 | 1.52 ± 0.33 | 442.09 ± 15.98 ng/mL | 7.71 ± 0.12 | 44.64 ± 3.27 | 439.66 ± 16.78 ng/mL | 7.09 ± 0.16 | 42.21 ± 3.37 | 440.84 ± 17.31 ng/mL | 6.63 ± 0.51 | Tmax and MRT0–∞ in the UC group compared with the control group ([1]; oral LXF, p < 0.05): longer; Stability, mean concentration found [2, 11]: 42.04 ± 2.18 ng/mL; Stability, mean concentration found [2, 12]: 436.91 ± 13.57 ng/mL; Stability, mean concentration found [2, 13]: 7.43 ± 0.66 ng/mL; Stability, mean concentration found [2, 14]: 42.66 ± 1.92 ng/mL
2 | COc1c(O)c(=O)n2c3ccccc3c3ccnc1c32 [4-methoxy-5-hydroxy-canthin-6-one] | 817 ± 177 | 759 ± 142 | 419 ± 104 | 0.43 ± 0.47 | 3.3 ± 1.52 | 3.66 ± 1.55 | 595 ± 117 | 554 ± 74.2 | 395 ± 97.7 | 0.08 | 3.15 ± 0.96 | 3.59 ± 1.43 | 391.53 ± 10.08 ng/mL | 6.38 ± 0.41 | 39.35 ± 4.12 | 387.02 ± 9.84 ng/mL | 5.50 ± 0.37 | 40.41 ± 3.15 | 386.59 ± 20.07 ng/mL | 5.65 ± 0.12 | Shape of the serum concentration-time curve ([1]; UC group, oral LXF): double peaks; Shape of the serum concentration-time curve ([1]; control group, oral LXF): not showed; Stability, mean concentration found [2, 11]: 41.43 ± 0.76 ng/mL; Stability, mean concentration found [2, 12]: 381.78 ± 17.23 ng/mL; Stability, mean concentration found [2, 13]: 6.39 ± 0.23 ng/mL; Stability, mean concentration found [2, 14]: 42.93 ± 1.44 ng/mL
3 | C=C1CC[C@@H]2[C@](C)(CO)[C@H](O)CC[C@@]2(C)[C@@H]1C/C=C1/C(=O)OC[C@H]1O [andrographolide] | 18400 | 15900 | 4090 | 0.69 ± 0.26 | 7.4 ± 5.02 | 7.4 ± 5.02 | 7120 | 6430 | 2310 | 0.53 ± 0.21 | 8.77 ± 2.96 | 8.42 ± 2.75 | 3,915.74 ± 98.45 ng/mL | 58.54 ± 4.47 | 383.22 ± 9.64 | 3,896.61 ± 129.89 ng/ml | 56.68 ± 4.20 | 399.59 ± 9.79 | 3,923.07 ± 110.39 ng/mL | 60.13 ± 3.34 | Stability, mean concentration found [2, 11]: 396.68 ± 13.05 ng/mL; Stability, mean concentration found [2, 12]: 3,904.68 ± 126.18 ng/ml; Stability, mean concentration found [2, 13]: 58.97 ± 2.93 ng/mL; Stability, mean concentration found [2, 14]: 370.23 ± 17.30 ng/mL
